Where two headings read alike, the source gives them in different places.
Target: T1, human enzyme NAMPT (full length) (Homo sapiens, UniProt P43490)
T1 construct: human enzyme NAMPT (full length)
Test: NMN fluorescence biochemical assay (stimulation of NMN synthesis by NAMPT)
Conditions: for EC50: concentration giving half-maximal activation, read-out: Enzymatic EC50; for Enzymatic Emax: fold change of maximal activation compared to DMSO
In short: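 Full-length human NAMPT (100 nM) was preincubated 15 min at 37 °C with compound in 50 mM Tris-HCl pH 7.5, 10 mM MgCl2, 2 mM DTT, then reacted 1 h at 37 °C with 50 μM NAM, 100 μM PRPP, 4 mM ATP (stated solution concentrations). NMN was derivatised with acetophenone/KOH then formic acid and read at Ex/Em 382/445 nm; EC50 and Emax (fold over DMSO) reported.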

[1] = NMN fluorescence assay, purified human NAMPT 100 nM
[2] = NMN synthesis by purified human NAMPT (100 nM)

T1 sequence (P43490 whole entry): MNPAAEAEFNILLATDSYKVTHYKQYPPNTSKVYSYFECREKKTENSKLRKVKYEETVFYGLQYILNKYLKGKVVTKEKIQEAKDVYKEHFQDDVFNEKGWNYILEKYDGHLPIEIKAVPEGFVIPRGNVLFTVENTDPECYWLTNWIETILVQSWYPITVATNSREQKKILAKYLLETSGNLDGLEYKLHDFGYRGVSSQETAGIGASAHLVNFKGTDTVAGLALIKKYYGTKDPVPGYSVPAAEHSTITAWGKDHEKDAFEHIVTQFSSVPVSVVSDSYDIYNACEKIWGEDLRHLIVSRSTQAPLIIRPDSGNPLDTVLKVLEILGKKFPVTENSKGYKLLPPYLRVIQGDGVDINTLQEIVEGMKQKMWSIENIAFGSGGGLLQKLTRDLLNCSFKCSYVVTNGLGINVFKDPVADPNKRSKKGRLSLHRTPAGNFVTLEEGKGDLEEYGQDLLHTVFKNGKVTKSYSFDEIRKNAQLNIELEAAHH

Compound | EC50 [1] | Enzymatic Emax | EC50 [2]
CC(=O)c1ccc(CN2C(=O)c3ccccc3C2Cc2c(Cl)cnn2C)cc1 (stereo not drawn) [Compound 584, 2-(4-acetylbenzyl)-3-((4-chloro-1-methyl-1H-pyrazol-5-yl)methyl)isoindolin-1-one] | 0.5 to 5 µM | B (3≥B>2) | 
O=C1c2cccc(Nc3ccccc3)c2C(=O)N1Cc1ccc(O)cc1 [Compound 17, 2-(4-hydroxybenzyl)-4-(phenylamino)isoindoline-1,3-dione] |  | B (3≥B>2) | 0.5 to 5 µM
Cn1ncc(Cl)c1CC1c2ccccc2C(=O)N1Cc1ccc(F)cc1 (stereo not drawn) [Compound 572, 3-((4-chloro-1-methyl-1H-pyrazol-5-yl)methyl)-2-(4-fluorobenzyl)isoindolin-1-one] | ≥ 5 µM | C (2≥C) | 
COc1ccc(CN2C(=O)c3ccccc3C2Cc2c(Cl)cnn2C)nc1 (stereo not drawn) [Compound 529, 3-((4-chloro-1-methyl-1H-pyrazol-5-yl)methyl)-2-((5-methoxypyridin-2-yl)methyl)isoindolin-1-one] | 0.5 to 5 µM | C (2≥C) | 
Cn1ncc(Cl)c1CC1c2cc(F)cc(F)c2C(=O)N1CC1CC2(CNC(=O)O2)C1 (stereo not drawn) [Compound 496, 2-((1-((4-chloro-1-methyl-1H-pyrazol-5-yl)methyl)-4,6-difluoro-3-oxoisoindolin-2-yl)methyl)-5-oxa-7-azaspiro[3.4]octan-6-one] | < 0.5 µM | B (3≥B>2) | 
Cc1n[nH]cc1/C=C(/F)CN1C(=O)c2ccccc2C1Cc1c(Cl)cnn1C (stereo not drawn) [Compound 504, (E)-3-((4-chloro-1-methyl-1H-pyrazol-5-yl)methyl)-2-(2-fluoro-3-(3-methyl-1H-pyrazol-4-yl)allyl)isoindolin-1-one] | 0.5 to 5 µM | B (3≥B>2) | 
O=C1N[C@H]2CCC(CN3C(=O)c4ccccc4C3Cc3ncccc3Br)C[C@@H]2O1 (relative stereo) [Compound 466, trans-6-((1-((3-bromopyridin-2-yl)methyl)-3-oxoisoindolin-2-yl)methyl)hexahydrobenzo[d]oxazol-2(3H)-one] | ≥ 5 µM | C (2≥C) | 
Cc1cccnc1C[C@@H]1c2ccccc2C(=O)N1Cc1ccc2[nH]c(=O)oc2c1 [Compound 177, (R)-6-((1-((3-methylpyridin-2-yl)methyl)-3-oxoisoindolin-2-yl)methyl)benzo[d]oxazol-2(3H)-one] |  | C (2≥C) | ≥ 5 µM
Cn1ncc(Cl)c1CC1c2ccccc2C(=O)N1Cc1ccc2ocnc2c1 (stereo not drawn) [Compound 561, 2-(benzo[d]oxazol-5-ylmethyl)-3-((4-chloro-1-methyl-1H-pyrazol-5-yl)methyl)isoindolin-1-one] | ≥ 5 µM | C (2≥C) | 
NC(=O)c1cccc(CC2c3ccccc3C(=O)N2Cc2ccc3[nH]c(=O)oc3c2)c1 (stereo not drawn) [Compound 264, 3-((3-oxo-2-((2-oxo-2,3-dihydrobenzo[d]oxazol-6-yl)methyl)isoindolin-1-yl)methyl) benzamide] |  | B (3≥B>2) | 0.5 to 5 µM
O=C1c2ccccc2C(Cc2ncccc2C2CC2)N1Cc1ccc2[nH]c(=O)oc2c1 (stereo not drawn) [Compound 184, 6-((1-((3-cyclopropylpyridin-2-yl)methyl)-3-oxoisoindolin-2-yl)methyl)benzo[d]oxazol-2(3H)-one] |  | B (3≥B>2) | 0.5 to 5 µM
Cn1ncc(Cl)c1CC1c2ccccc2C(=O)N1Cc1ccc(Br)cc1 (stereo not drawn) [Compound 575, 2-(4-bromobenzyl)-3-((4-chloro-1-methyl-1H-pyrazol-5-yl)methyl)isoindolin-1-one] | 0.5 to 5 µM | C (2≥C) | 
O=C1c2ccccc2C(Cc2ncccc2Br)N1Cc1cnc2[nH]c(=O)oc2c1 (stereo not drawn) [Compound 222, 6-((1-((3-bromopyridin-2-yl)methyl)-3-oxoisoindolin-2-yl)methyl)oxazolo[4,5-b]pyridin-2(3H)-one] |  | B (3≥B>2) | ≥ 5 µM
N#Cc1cccc(CC2c3ccccc3C(=O)N2Cc2ccc3[nH]c(=O)oc3c2)n1 (stereo not drawn) [Compound 219, 6-((3-oxo-2-((2-oxo-2,3-dihydrobenzo[d]oxazol-6-yl)methyl)isoindolin-1-yl)methyl)picolinonitrile] |  | B (3≥B>2) | 0.5 to 5 µM
CN(C)c1ccc2c(c1)C(=O)N(Cc1ccc(O)cc1)C2 [Compound 305, 6-(dimethylamino)-2-(4-hydroxybenzyl) isoindolin-1-one] |  | C (2≥C) | ≥ 5 µM
O=C1COc2ccccc2N1Cc1ccc(O)cc1 [Compound 6, 4-(4-hydroxybenzyl)-2H-benzo[b][1,4]oxazin-3(4H)-one] |  | B (3≥B>2) | ≥ 5 µM
O=C1c2ccccc2C(Cc2ncccc2Br)N1Cc1ccn2c(CO)nnc2c1 (stereo not drawn) [Compound 323, 3-((3-bromopyridin-2-yl)methyl)-2-((3-(hydroxymethyl)-[1,2,4]triazolo[4,3-a]pyridin-7-yl)methyl)isoindolin-1-one] | ≥ 5 µM | B (3≥B>2) | 

Compound | EC50 [1] | Enzymatic Emax | EC50 [2]
O=c1[nH]n(Cc2ccc(O)cc2)c2ccccc12 [Compound 13, 1-(4-hydroxybenzyl)-1,2-dihydro-3H-indazol-3-one] |  | B (3≥B>2) | ≥ 5 µM
COc1ccc(CN2C(Cc3c(Cl)cnn3C)c3ccccc3S2(=O)=O)cn1 (stereo not drawn) [Compound 642, 3-((4-chloro-1-methyl-1H-pyrazol-5-yl)methyl)-2-((6-methoxypyridin-3-yl)methyl)-2,3-dihydrobenzo[d]isothiazole 1,1-dioxide] | ≥ 5 µM | B (3≥B>2) | 
Cn1ncc(Cl)c1CC1c2ccccc2C(=O)N1Cc1nn[nH]c1F (stereo not drawn) [Compound 630, 3-((4-chloro-1-methyl-1H-pyrazol-5-yl)methyl)-2-((5-fluoro-1H-1,2,3-triazol-4-yl)methyl)isoindolin-1-one] | ≥ 5 µM | C (2≥C) | 
Cn1ncc(Cl)c1CC1c2ccccc2C(=O)N1Cc1ccccc1 (stereo not drawn) [Compound 502, 2-benzyl-3-((4-chloro-1-methyl-1H-pyrazol-5-yl)methyl)isoindolin-1-one] | ≥ 5 µM | C (2≥C) | 
O=C1c2ccccc2C(CC2CCCC2)N1Cc1ccc2[nH]c(=O)oc2c1 (stereo not drawn) [Compound 252, 6-((1-(cyclopentylmethyl)-3-oxoisoindolin-2-yl)methyl)benzo[d]oxazol-2(3H)-one] |  | B (3≥B>2) | 0.5 to 5 µM
O=C1c2ccccc2C(Cc2ccc(F)cn2)N1Cc1ccc2[nH]c(=O)oc2c1 (stereo not drawn) [Compound 194, 6-((1-((5-fluoropyridin-2-yl)methyl)-3-oxoisoindolin-2-yl)methyl)benzo[d]oxazol-2(3H)-one] |  | B (3≥B>2) | 0.5 to 5 µM
O=C1c2ccccc2C(Cc2ncccc2Br)N1Cc1ccc(O)cc1 (stereo not drawn) [Compound 429, 3-((3-bromopyridin-2-yl)methyl)-2-(4-hydroxybenzyl)isoindolin-1-one] | < 0.5 µM | C (2≥C) | 
COc1nc2cc(CN3C(=O)c4ccccc4C3Cc3ncccc3Br)ccc2[nH]1 (stereo not drawn) [Compound 254, 3-((3-bromopyridin-2-yl)methyl)-2-((2-methoxy-1H-benzo[d]imidazol-5-yl)methyl) isoindolin-1-one] |  | B (3≥B>2) | 0.5 to 5 µM
[2H]C([2H])(C1CC2(CNC(=O)O2)C1)N1C(=O)c2ccccc2C1Cc1c(Cl)cnn1C (stereo not drawn) [Compound 643, 2-((1-((4-chloro-1-methyl-1H-pyrazol-5-yl)methyl)-3-oxoisoindolin-2-yl)methyl-d)-5-oxa-7-azaspiro[3.4]octan-6-one] | 0.5 to 5 µM | B (3≥B>2) | 
O=C1c2ccccc2C(Cc2cc(F)ccn2)N1Cc1ccc2[nH]c(=O)oc2c1 (stereo not drawn) [Compound 233, 6-((1-((4-fluoropyridin-2-yl)methyl)-3-oxoisoindolin-2-yl)methyl)benzo[d]oxazol-2(3H)-one] |  | B (3≥B>2) | 0.5 to 5 µM
NC(=O)c1ccc(CC2c3ccccc3C(=O)N2Cc2ccc3[nH]c(=O)oc3c2)cc1 (stereo not drawn) [Compound 253, 4-((3-oxo-2-((2-oxo-2,3-dihydrobenzo[d]oxazol-6-yl)methyl)isoindolin-1-yl)methyl) benzamide] |  | A (A>3) | ≥ 5 µM
Cn1ncc(Cl)c1C[C@@H]1c2ccccc2C(=O)N1C/C=C/c1c[nH]nn1 [Compound 313, (R,E)-2-(3-(1H-1,2,3-triazol-4-yl)allyl)-3-((4-chloro-1-methyl-1H-pyrazol-5-yl)methyl)isoindolin-1-one] |  | C (2≥C) | ≥ 5 µM
Cc1cnn(C)c1CC1c2ccccc2C(=O)N1Cc1ccc2[nH]nnc2c1 (stereo not drawn) [Compound 365, 2-((1H-benzo[d][1,2,3]triazol-5-yl)methyl)-3-((1,4-dimethyl-1H-pyrazol-5-yl)methyl)isoindolin-1-one] | 0.5 to 5 µM | B (3≥B>2) | 
COc1ccc2c(c1)C(=O)N(Cc1ccc(O)cc1)C2=O [Compound 30, 2-(4-hydroxybenzyl)-5-methoxyisoindoline-1,3-dione] |  | A (A>3) | 0.5 to 5 µM
O=C1c2ccccc2C(Cc2ncccc2Br)N1Cc1ccc2[nH]c(=S)oc2c1 (stereo not drawn) [Compound 287, 3-((3-bromopyridin-2-yl)methyl)-2-((2-thioxo-2,3-dihydrobenzo[d]oxazol-6-yl)methyl) isoindolin-1-one] |  | B (3≥B>2) | 0.5 to 5 µM
CC1c2cccc(-c3cccnc3)c2C(=O)N1Cc1ccc2[nH]c(=O)oc2c1 (stereo not drawn) [Compound 244, 6-((1-methyl-3-oxo-4-(pyridin-3-yl)isoindolin-2-yl)methyl)benzo[d]oxazol-2(3H)-one] |  | B (3≥B>2) | ≥ 5 µM
